Results: paper PMC4346889, “Discovery of Akt Kinase Inhibitors through Structure-Based Virtual Screening and Their Evaluation as Potential Anticancer Agents” (International Journal of Molecular Sciences, 2015)

How the values were obtained:
[1] = system: HEK-293 normal human embryonic kidney cells; assay: Cytotoxicity evaluation, ATPLite cell viability; type: cell-based; conditions: HEK293, 48 h, concentration required to inhibit cell growth by 50%, 2 days incubation
Protocol: (§1) The 26 test compounds (as listed in Figure 4) were further evaluated at 100 µM for their cytotoxicity against HCT-116 human colon cancer cells and HEK-293 normal human embryonic kidney cells. […] Their chemical structures are shown in Figure S1 in the Supplementary Material.
(§2) Compounds were evaluated at 100 µM for their cytotoxicity against HCT-116 human colon cancer cells and HEK-293 normal human embryonic kidney cells. Cells were seeded at a density of 1 × 10^4 cells/well in 96-well plates and allowed to attach overnight. Cells were then treated with test compounds or 1% DMSO (vehicle control) and incubated at 37 °C in an atmosphere of 5% CO2 for 2 days. The ATPLite kit (PerkinElmer, Waltham, MA, USA) was used for detecting the cell viability.

[2] = system: HCT-116 human colon cancer cells; assay: Cytotoxicity evaluation, ATPLite cell viability; type: cell-based; conditions: for IC50: Homo sapiens, HCT-116, 48 h, concentration required to inhibit cell growth by 50%, 2 days incubation; for Selectivity index: ratio of IC50 for HEK-293/IC50 for HCT-116
Akt kinase [3] = target: T1, Akt kinase (Homo sapiens, UniProt P31749); assay: Akt kinase inhibition assay (EKS-400A assay kit); type: biochemical
T1 construct: purchased Enzo Life Sciences EKS-400A
Protocol: The 48 selected compounds from virtual screening were assessed at 100 µM for their ability to inhibit Akt kinase activity using the EKS-400A assay kit (Enzo Life Sciences, Farmingdale, NY, USA).
Compounds were evaluated at 100 µM for their ability to inhibit Akt kinase activity using the EKS-400A assay kit (Enzo Life Sciences). Test compounds or 1% DMSO (vehicle control) were incubated with the 8 ng pure Akt kinase in Hanks’ Balanced Salt Solution (HBSS) at 37 °C for 30 min.

Akt kinase [4] = target: T1, Akt kinase; conditions: cited from earlier work
[5] = system: HCT-116 human colon cancer cells; assay: Cytotoxicity evaluation, ATPLite cell viability; type: cell-based; conditions: at 100 µM, compared with reference H-89
Protocol: as §1, §2

T1 sequence (P31749 whole entry): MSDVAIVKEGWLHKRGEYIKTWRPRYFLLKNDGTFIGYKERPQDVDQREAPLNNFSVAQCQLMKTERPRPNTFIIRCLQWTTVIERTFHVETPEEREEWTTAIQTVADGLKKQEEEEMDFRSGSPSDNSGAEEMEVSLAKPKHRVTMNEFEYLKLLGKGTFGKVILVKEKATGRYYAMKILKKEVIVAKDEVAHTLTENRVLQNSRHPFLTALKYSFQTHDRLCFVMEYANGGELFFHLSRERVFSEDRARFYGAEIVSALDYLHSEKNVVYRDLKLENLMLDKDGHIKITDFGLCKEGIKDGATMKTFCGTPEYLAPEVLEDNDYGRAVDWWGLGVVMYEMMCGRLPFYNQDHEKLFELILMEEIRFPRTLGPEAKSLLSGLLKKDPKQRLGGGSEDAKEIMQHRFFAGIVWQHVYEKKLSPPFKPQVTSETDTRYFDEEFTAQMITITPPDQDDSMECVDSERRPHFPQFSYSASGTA

SMILES | IC50 [1] [µM] | IC50 [2] [µM] | IC50 (Akt kinase [3]) [µM] | Selectivity index [2] | inhibition at 100 µM (Akt kinase [3]; at 100 µM) [%] | remaining activity at 100 µM (Akt kinase [3]; compound at 100 µM, read-out: Akt kinase residual activity) [%] | pan-Akt kinase inhibitor activity (Akt kinase [4]) | cytotoxic activity against HCT-116 compared to H-89 [5]
O=S(=O)(NCCNC/C=C/c1ccc(Br)cc1)c1cccc2cnccc12 [Compound H-89, H-89, reference compound] | 112 | 78.9 |  |  |  |  |  | 
Cc1nn(C)cc1-c1nnc(SCC(=O)Nc2cc(C(F)(F)F)ccc2Cl)n1-c1ccc(Cl)cc1 [Compound a46] | 139 | 11.1 | 201 | 12.5 |  |  |  | 
Nc1ncnc2nc(SCC(=O)Nc3ccc(Br)cc3)[nH]c12 [Compound a48] | 153 | 9.5 |  | 16.1 | 75 | < 60 |  | 
CCn1c(-c2nonc2N)nc2c(C#CC(C)(C)O)ncc(OC[C@H]3CCCNC3)c21 [GSK690693] |  |  |  |  |  |  | low nanomolar activity | 
Cc1cccc(Nc2nc3nonc3nc2N/N=C/c2cc3c(cc2Br)OCO3)c1C [a33] | 165 | 109 |  | 1.5 |  |  |  | more potent or comparable cytotoxic activity to that of H-89
Cc1cccc(-c2nc3cc(/N=C/c4c(C)cc(O)c(C)c4O)ccc3o2)c1 [a44] | 102 | 50.6 |  | 2.0 |  |  |  | more potent or comparable cytotoxic activity to that of H-89
